Laboratory results reported in patent publication US11559498B2, “Compositions and methods for in vivo lung and blood SNO repletion” (UNIVERSITY HOSPITALS CLEVELAND MEDICAL CENTER, priority 2020, dated 2023).

How the values were obtained:
SNO-Hb = SNO-Hb levels in the blood of humans after inhalation of ENO; type: in vivo; conditions: FIG. 1B
Text: (§1) 3. Humans Each subject was fitted with an on-demand nonrebreather mask to regulate oxygen (FiO2) and ENO delivery. ENO was blended at 1-100 ppm.
(§2) Photolysis-chemiluminescence was used to quantify RBC SNO-Hb levels before and during ENO exposure. Blood was obtained through arterial lines and venipuncture. Method of sample preparation and measurement is as described in Hausladen (ref: Hausladen A et al. Assessment of nitric oxide signals by triiodide chemiluminescence. Proc. Natl. Acad. Sci. U.S.A 104, 2157-2162 (2007)).

[1] = metHb during ventilation with ENO; type: in vivo, pigs/dogs; conditions: 100 ppm ENO (maximum dose), ventilated large animals
Text: (§3) 2. Large animals (pigs/dogs) are ventilated. ENO was mixed into the ventilation circuit using a custom-made gas-blending device (1-100 ppm). One hundred ppm ENO was selected as the maximum dose based on the amounts of metHb (<5%).

lung inflammation (BALF) = test: Hyperoxic injury-induced lung inflammation in mice; type: in vivo
Experimental: (§4) 1. Mice are either placed in chambers where ambient oxygen and ENO levels (1-100 ppm) are controlled, or mice are ventilated as in 2. below.
Bronchoalveolar lavage fluid (BAL), cell and protein content, differential cell analysis, lung fixation and histological sectioning, were performed as previously described (Groves, Am. J. Respir Cell Mol. Biol. 47, 776-783 (2012); Lien Van Hoecke J Vis Exp. 2017; (123): 55398)).

isolated human kidneys = test: Isolated human kidneys treated with ENO
GSNO levels in the lungs = GSNO levels in the lungs after inhalation of ENO; type: in vivo; conditions: FIG. 1A
Text: as §4, §3, §1

SNO-Hb and muscle StO2 = test: Hypoxic humans dosed with ENO: muscle oxygenation and SNO-Hb; type: in vivo; conditions: at study completion, FiO2 fixed at 0.12, FIG. 2
Text: as §1, §2

[2] = system: porcine circovirus type 2 (PCV2); test: PCV2 infection and replication; type: cell-based
lung injury = test: Rat ischemia/reperfusion (IR) preparation, lung injury; type: in vivo
[3] = system: airway hyper-responsiveness; test: Mouse airway hyper-responsiveness following hyperoxia; type: in vivo; conditions: hyperoxia 60% oxygen for 21 days, FIG. 6
[4] = cited from earlier work

Compound: CCON=O [ENO, ethyl nitrite]
- SNO-Hb levels in the blood (SNO-Hb): significantly increases
- amounts of metHb [1]: < 5%
- lung (BALF) leukocyte concentrations (lung inflammation (BALF); ENO for 8 days, FIG. 3A): decreased
- lung (BALF) neutrophil concentrations (lung inflammation (BALF); ENO for 8 days, FIG. 3A): decreased
- accumulation of cytokine-induced neutrophil chemoattractant-1 (lung inflammation (BALF); FIG. 3B): attenuated
- expression of cytokine-induced neutrophil chemoattractant-1 (lung inflammation (BALF); FIG. 3C): attenuated
- tissue SNO levels (isolated human kidneys; FIG. 4A): increased
- release of IL-10 (isolated human kidneys; FIG. 4B): increased
- level of IL-10 (isolated human kidneys; FIG. 4C): increased
- GSNO levels in the lungs over inhaled NO (GSNO levels in the lungs; inhalation of ENO compared with inhaled NO): several fold
- GSNO levels in the lungs (GSNO levels in the lungs; inhalation of ENO): significantly increases
- SNO-Hb levels (SNO-Hb and muscle StO2): doubled
- muscle StO2 (near infrared spectroscopy) (SNO-Hb and muscle StO2): at normoxic (prehypoxic) levels

Compound: N[C@@H](CCC(=O)N[C@@H](CSN=O)C(=O)NCC(=O)O)C(=O)O [GSNO]
- infection of PCV2 ([2]; FIG. 7A): significantly reduces
- replication of PCV2 ([2]; FIG. 7B): significantly reduces
- lung injury (lung injury; FIG. 5A): significantly reduced
- expression of iNOS (lung injury; FIG. 5B): significantly reduced
- expression of NF-kappaB (lung injury; FIG. 5C): significantly reduced
- airway hyper-responsiveness ([3]; inhalation): attenuated

Compound: Cc1cc(C(N)=O)ccc1-n1c(CCC(=O)O)ccc1-c1ccc(-n2ccnc2)cc1 [N6022]
- airway hyper-responsiveness ([3]; ip administration): attenuated

Compound: CC(=O)N[C@@H](CS)C(=O)O [N-acetylcysteine]
- solubility in chloroform and ether ([4]; chloroform and ether): practically insoluble
- solubility in water and alcohol ([4]; water and alcohol): soluble
